Assay results: paper PMC9017349, “Spiropyrimidinetriones: a Class of DNA Gyrase Inhibitors with Activity against Mycobacterium tuberculosis and without Cross-Resistance to Fluoroquinolones” (Antimicrobial Agents and Chemotherapy, 2022)
Converted amounts (≈) assume the structure as drawn.

Tests used:
[1] = test system: M. tuberculosis DNA gyrase GyrA, G88C; type: cell-based, Mycobacterium tuberculosis
[2] = test system: M. tuberculosis DNA gyrase GyrA, A90V; type: cell-based, Mycobacterium tuberculosis
[3] = test system: M. tuberculosis ATCC 35826 (CS resistance); experiment: microbe, parasite or virus in culture; type: cell-based; conditions: Mycobacterium tuberculosis, ATCC35826
[4] = test system: M. tuberculosis ATCC 35838 (Rif resistance); experiment: microbe, parasite or virus in culture; type: cell-based; conditions: Mycobacterium tuberculosis, ATCC35838
[5] = test system: M. tuberculosis ATCC 3583 (INH resistance); experiment: microbe, parasite or virus in culture; type: cell-based; conditions: Mycobacterium tuberculosis, ATCC3583, read-out: MIC90, ATCC 3583 (INH resistance)
[6] = test system: M. tuberculosis MmpL3, G758A/G253E; type: cell-based, Mycobacterium tuberculosis
[7] = test system: M. tuberculosis MmpL3, G253E; type: cell-based, Mycobacterium tuberculosis
[8] = test system: M. tuberculosis QcrB D317T; type: cell-based, Mycobacterium tuberculosis

Row | SMILES | MIC90, DNA gyrase GyrA, G88C [1] | MIC90, DNA gyrase GyrA, A90V [2] | MIC90 [3] | MIC90 [4] | MIC90 [5] | MIC90, MmpL3, G758A/G253E [6] | MIC90, MmpL3, G253E [7] | MIC90, QcrB D317T [8]
1 | Cc1nnc(-c2noc3c(F)c4c(cc23)CC2(C(=O)NC(=O)NC2=O)[C@H]2[C@H](C)O[C@H](C)CN42)o1 [Compound 22] | 0.98 µM (≈ 0.461 µg/mL) | 0.98 µM (≈ 0.461 µg/mL) | – | – | – | – | – | –
2 | NNC(=O)c1ccncc1 [Isoniazid, isoniazid] | – | – | 3.4 µM (≈ 0.466 µg/mL) | 7.8 µM (≈ 1.07 µg/mL) | > 62.5 µM | – | – | –
3 | C[C@H]1COc2c(N3CCN(C)CC3)c(F)cc3c(=O)c(C(=O)O)cn1c23 [Levofloxacin] | 2.0 µM (≈ 0.723 µg/mL) | 16 µM (≈ 5.78 µg/mL) | – | – | – | – | – | –
4 | COc1c(N2C[C@@H]3CCCN[C@@H]3C2)c(F)cc2c(=O)c(C(=O)O)cn(C3CC3)c12 [Moxifloxacin, moxifloxacin] | 0.49 µM (≈ 0.197 µg/mL) | 7.8 µM (≈ 3.13 µg/mL) | – | – | – | – | – | –
5 | CO[C@H]1/C=C/O[C@@]2(C)Oc3c(C)c(O)c4c(O)c(c(/C=N/N5CCN(C)CC5)c(O)c4c3C2=O)NC(=O)/C(C)=C\C=C\[C@H](C)[C@H](O)[C@@H](C)[C@@H](O)[C@@H](C)[C@H](OC(C)=O)[C@@H]1C [Rif, rifampicin] | 0.0023 µM (≈ 0.00189 µg/mL) | 0.0023 µM (≈ 0.00189 µg/mL) | 0.001 µM (≈ 0.000823 µg/mL) | > 0.1 µM | 0.006 µM (≈ 0.00494 µg/mL) | 0.001 µM (≈ 0.000823 µg/mL) | 0.001 µM (≈ 0.000823 µg/mL) | 0.0046 µM (≈ 0.00379 µg/mL)
6 | CC(C)=CCC/C(C)=C/CNCCNC1C2CC3CC(C2)CC1C3 (stereo not shown) [SQ109] | – | – | – | – | – | 2.0 µM (≈ 0.661 µg/mL) | 2.0 µM (≈ 0.661 µg/mL) | –
